Test results: PubChem BioAssay (NCI)
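Five compound concentrations were applied to cells in 96-well plates for 48 hours; endpoints were derived by simple linear interpolation of the resulting dose-response curve. The concentration for 50% growth inhibition is given as GI50. TGI is the concentration that stops growth completely.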

Key:
Assay in all cases: DTP human tumour cell line panel, 48 h
SF-295 CNS = system: SF-295 CNS
SW-620 colon = system: SW-620 colon
COLO 205 colon = system: COLO 205 colon
SK-MEL-2 melanoma = system: SK-MEL-2 melanoma
MOLT-4 leukemia = system: MOLT-4 leukemia
HCC-2998 colon = system: HCC-2998 colon
MALME-3M melanoma = system: MALME-3M melanoma
NCI-H226 lung = system: NCI-H226 lung
NCI/ADR-RES ovarian = system: NCI/ADR-RES ovarian
MDA-MB-231 breast = system: MDA-MB-231 breast

| Structure (SMILES) | TGI (SF-295 CNS) [µM] | TGI (SW-620 colon) [µM] | TGI (COLO 205 colon) [µM] | TGI (SK-MEL-2 melanoma) [µM] | TGI (MOLT-4 leukemia) [µM] | TGI (HCC-2998 colon) [µM] | TGI (MALME-3M melanoma) [µM] | TGI (NCI-H226 lung) [µM] | GI50 (SF-295 CNS) [µM] | GI50 (SW-620 colon) [µM] | GI50 (COLO 205 colon) [µM] | GI50 (SK-MEL-2 melanoma) [µM] | GI50 (MOLT-4 leukemia) [µM] | GI50 (HCC-2998 colon) [µM] | GI50 (NCI/ADR-RES ovarian) [µM] | TGI (NCI/ADR-RES ovarian) [µM] | GI50 (MALME-3M melanoma) [µM] | GI50 (NCI-H226 lung) [µM] | TGI (MDA-MB-231 breast) [µM] |
| --- | --- | --- | --- | --- | --- | --- | --- | --- | --- | --- | --- | --- | --- | --- | --- | --- | --- | --- | --- |
| Cc1ccc(C=NC23CC4CC(CC(C4)C2)C3)cc1 | > 100 | > 100 | > 100 | > 100 | > 100 | > 100 | > 100 | > 100 | – | – | – | – | – | – | – | – | – | – | – |
| COC(=O)[C@]12CC[C@@H](C)[C@H](C)[C@@H]1C1=CC[C@@H]3[C@@]4(C)C(C=O)=C[C@@](C)(COS(C)(=O)=O)C4[C@H](O)C[C@@]3(C)[C@]1(C)CC2 (stereo partly drawn) | 2.77 | 5.7 | 3.93 | 5.03 | 1.05 | 3.12 | 3.39 | 7.31 | 1.31 | 2.36 | 1.85 | 2.06 | 0.313 | 1.69 | 2.03 | 5.3 | 1.65 | 2.88 | – |
| Cc1ccccc1C(=O)Oc1ccc(OCc2ccccc2)cc1 | > 100 | > 100 | > 100 | – | > 100 | > 100 | > 100 | – | – | – | – | – | – | – | – | – | – | – | – |
| OCC(O)C(O)C(O)c1nn(-c2ccccc2)c2nc3cc(Cl)c(Cl)cc3nc12 (stereo not drawn) | > 100 | > 100 | > 100 | 98 | 87.6 | 98.4 | 77.7 | > 100 | – | – | – | – | – | – | – | – | – | – | – |
| CC1(C(=O)O)CCOc2ccccc21 (stereo not drawn) | > 100 | > 100 | > 100 | – | > 100 | > 100 | > 100 | > 100 | – | – | – | – | – | – | – | – | – | – | – |
| COc1ccc2c(c1)c(-c1ccc(-c3cn(C)c4ccc(OC)cc34)[nH]1)cn2C | 45.7 | 5.86 | 4.74 | 22.2 | 29.7 | – | 9.03 | 22.2 | 4.59 | 2.26 | 1.92 | 4 | 4.13 | – | 3.39 | 20 | 2.64 | 8.2 | – |
| O=C1C(=O)N(c2nccs2)C(=O)C(=O)C1c1nc2ccccc2s1 | > 100 | > 100 | > 100 | > 100 | – | > 100 | > 100 | > 100 | – | – | – | – | – | – | – | – | – | – | – |
| O=C(Nc1ccc(Br)cc1)C(=O)C(C(=O)c1ccccc1F)C1OC(=O)c2ccccc21 (stereo not drawn) | – | > 100 | 45.2 | 68.6 | 92.8 | 32.1 | 88.6 | 19.7 | – | – | – | – | – | – | – | – | – | – | – |
| CC(NC(=O)C(=O)N/N=C1\C[C@@H](c2ccccc2)Nc2ccccc21)c1ccccc1 (stereo partly drawn) | > 100 | > 100 | > 100 | > 100 | – | > 100 | 99.6 | > 100 | – | – | – | – | – | – | – | – | – | – | – |
| COc1nc2c(nc(N)n2C2OCC(O)C(O)C2O)c(=O)n1C (stereo not drawn) | > 100 | > 100 | > 100 | – | > 100 | > 100 | > 100 | > 100 | – | – | – | – | – | – | – | – | – | – | – |
| CCOC(=O)C1=C(Nc2ccc(Br)cc2)OC/C1=N\NC(=O)c1ccccc1O | > 100 | > 49.4 | > 100 | > 100 | 35.2 | > 100 | > 100 | > 84 | – | – | – | – | – | – | – | – | – | – | – |
| CCOC(=O)c1ccc(N2C(=O)Cc3ccccc3C2=O)cc1 | > 100 | > 100 | – | > 100 | > 100 | > 100 | > 100 | > 100 | – | – | – | – | – | – | – | – | – | – | – |
| CC(C)CC12CC3CCC(CNC1=O)C32C (stereo not drawn) | > 100 | > 100 | > 100 | > 100 | > 100 | > 100 | > 100 | > 100 | – | – | – | – | – | – | – | – | – | – | – |
| CC(=O)/C=C1\CC(=O)Nc2ccccc2N1 | > 100 | > 100 | – | > 100 | > 100 | > 100 | > 100 | > 100 | – | – | – | – | – | – | – | – | – | – | – |
| OCC(CCc1c[nH]c2ccccc12)c1c[nH]c2ccccc12 (stereo not drawn) | 42.9 | 29.4 | 30.6 | 31.3 | 52.1 | – | 32.2 | 36.7 | – | – | – | – | – | – | – | 44.1 | – | – | 27.6 |
| O=C(N/C(=C\c1ccc(/C=C(\NC(=O)c2ccccc2)c2nc3ccccc3s2)cc1)c1nc2ccccc2s1)c1ccccc1 | 16.1 | 14.8 | 16.5 | 19.2 | 26.7 | 27.8 | 25.2 | 34.3 | – | – | – | – | – | – | – | – | – | – | – |
